49 sequences from patent publication US20070073039A1, “Peptides that inhibit viral infections” (priority 2005, published 2007) can be followed below.

The experiment relates to HCV. Put plainly: HCV focus reduction assay. The note with it: for Fold Inhibition: inhibition of HCV infection; for Fold Inhibition / % of Mock: peptide approximately 20 μM, Huh-7.5.1 cells, 3 days; for % of Mock: number of HCV foci as % of mock (0.5% DMSO); for 1/3 diluted / 1/9 diluted / No dilution: HCV foci; for 1/3 diluted: 1/3 of final concentration (6 μM); for 1/9 diluted: 1/9 of final concentration (2 μM); for No dilution: final concentration 17-20 μM, MOCK 53 ± 4; for Fold inhibition of HCV infection: peptide library screen, approximately 20 μM. It counts as cell-based, Hepatitis C virus (JFH-1). The protocol: To identify peptides that display antiviral activity against HCV infection, the peptide library was screened by an HCV focus reduction assay. The peptides were constituted in 100% DMSO at a final concentration 10 mg/mL, and stored in −20° C. The peptide stock solution was diluted 1:200 to a final concentration approximately 20 μM in complete DMEM growth medium containing 50 focus forming units (ffu) of HCV. The virus-peptide mixture was transferred to Huh-7.5.1 cells at a density of 8000 cells per well in a 96-well plate. After adsorption for 4 hours at 37° C., the inoculum was removed. The cells were washed 2 times, overlaid with 120 μL fresh growth medium and incubated at 37° C. After 3 days of culture, the cells were fixed with paraformaldehyde and immunostained with antibody against HCV nonstructural protein NS5A. The numbers of HCV foci were counted under fluorescent microscopy and the result is expressed as percentage (%) of mock with no peptide treatment but containing solvent 0.5% DMSO.
To determine whether the antiviral activity of peptide 1 is dependent on its primary amino acid sequence, four derivative peptides from peptide 1 were synthesized to a purity >95%. The four derivatives having the same composition of amino acids included (1) the reversed the sequence of peptide 1 (also called retro-peptide); (2) scrambled hydrophobic amino acids; (3) scrambled hydrophilic amino acids; and (4) a derivative in which the aspartic acid residues (D) were replaced with proline residues (P). The antiviral activity of the peptides was examined by HCV focus reduction assay at three peptide concentrations: 18 μM, 6 μM and 2 μM, as described above.

Consider VSTATQTFLATCIN [Peptide 7725], for which the “Fold Inhibition” value amounted to 2.5 fold and the “% of Mock” value is 40.5%.

Consider GVPPLRAWRHRARSVRAR [Peptide 7342], for which the “Fold Inhibition” value worked out at 2.0 fold and the “% of Mock” value is on record as 50.0%.

Regarding MWNFISGIQYLAGLSTLP [Peptide 7178], the “Fold Inhibition” value is 2.3 fold and the “% of Mock” value is listed as 42.9%.

Consider PCVIGGVGNNTLLCPTDC [Peptide 7007], for which the “Fold Inhibition” value is 3.0 fold and the “% of Mock” value amounted to 33.3%.

Consider TVTESDIRTEEAIYQCCD [Peptide 7304], for which the “Fold Inhibition” value came to 2.8 fold and the “% of Mock” value was 35.7%.

With “SWLRPIWPWICEVLSDFK (OTHER INFORMATION: A synthetic peptide)”, the 1/3 diluted amounted to 21 ± 8, the 1/9 diluted is 41 ± 2 and the No dilution amounted to 9 ± 3.

In the case of DVVCCSMSYSWTGAL [Peptide 7742], the “Fold Inhibition” value is given as 4.2 fold and the “% of Mock” value was 23.8%.

With PAILSPGALVVGVVCAAI [Peptide 7195], the “Fold Inhibition” value was determined as 2.3 fold and the “% of Mock” value was 42.9%.

As for DAILHTPGCVPCVREGNA [Peptide 6957], the “Fold Inhibition” value came to 4.7 fold and the “% of Mock” value was determined as 21.4%.

Consider WVLVGGVLAALAAYCLST [Peptide 7163], for which the “Fold Inhibition” value worked out at 3.8 fold and the “% of Mock” value worked out at 26.2%.

In the case of WRHRARSVRARLLSRGGR [Peptide 7343], the “Fold Inhibition” value was found to be 2.1 fold and the “% of Mock” value turned out to be 47.6%.

Take LASCRRLTDFAQGWGPIS [Peptide 6991]: the “Fold Inhibition” value is given as 2.8 fold and the “% of Mock” value is 35.7%.

For the sequence RAAGLQDCTMLVCGDDLV [Peptide 7315], the “Fold Inhibition” value is 2.0 fold and the “% of Mock” value is on record as 50.0%.

As to DTEDVVCCSMSYSW [Peptide 7741], the “Fold Inhibition” value is reported as 42.0 fold, the “% of Mock” value is 2.4% and the “Fold inhibition of HCV infection” value is listed as “more than ten-fold”. Further, the “Inhibition of HCV infection” value (cell culture model of HCV infection) was “strongly inhibit HCV infection”.

In the case of MYVGGVEHRLEAACNWTR [Peptide 7016], the “Fold Inhibition” value is given as 6.0 fold, the “% of Mock” value was 16.7% and the “Fold inhibition of HCV infection” value is given as “five-fold to ten-fold”.

For HTPVNSWLGNIIMFAPTL [Peptide 7329], the “Fold Inhibition” value is on record as 2.1 fold and the “% of Mock” value worked out at 47.6%.

With “KWLCRIWSWISDVLDDFE (OTHER INFORMATION: A synthetic peptide)”, the 1/3 diluted was found to be 8 ± 6, the 1/9 diluted turned out to be 15 ± 6 and the No dilution is listed as 0 ± 0.

For LELITSCSSNVSVAHDGA [Peptide 7323], the “Fold Inhibition” value was determined as 2.3 fold and the “% of Mock” value came to 42.9%.

Regarding DSSVLCECYDAGCAWYEL [Peptide 7142], the “Fold Inhibition” value turned out to be 2.5 fold and the “% of Mock” value is 40.5%.

Turning to GMWPLLLLLLALPQRAYA [Peptide 7039], the “Fold Inhibition” value amounted to 3.2 fold and the “% of Mock” value turned out to be 31.0%.

With GWFTAGYSGGDIYHSVSH [Peptide 7350], the “Fold Inhibition” value is on record as 2.3 fold and the “% of Mock” value is on record as 42.9%.

Take DDLVVICESAGVQEDAAS [Peptide 7317]: the “Fold Inhibition” value is given as 3.8 fold and the “% of Mock” value is 26.2%.

With SIASWAIKWEYVVLLFLL [Peptide 7027], the “Fold Inhibition” value was 2.5 fold and the “% of Mock” value is recorded as 40.5%.

LPTTQLRRHIDLLVGSAT [Peptide 6962]: the “Fold Inhibition” value came out at 2.6 fold and the “% of Mock” value amounted to 38.1%.

With GNTLTCYIKARAACRAAG [Peptide 7313], the “Fold Inhibition” value is on record as 2.2 fold and the “% of Mock” value was 45.2%.

Take GSGLDERPYCWHYPPRPC [Peptide 6994]: the “Fold Inhibition” value is recorded as 3.0 fold and the “% of Mock” value is 33.3%.

Consider RHIDLLVGSATLCSALYV [Peptide 6963], for which the “Fold Inhibition” value is recorded as 3.2 fold and the “% of Mock” value turned out to be 31.0%.

For the sequence TDFAQGWGPISYANGSGL [Peptide 6992], the “Fold Inhibition” value is reported as 3.2 fold and the “% of Mock” value worked out at 31.0%.

With HINSTALNCNESLNTGWL [Peptide 6986], the “Fold Inhibition” value was determined as 2.5 fold and the “% of Mock” value is listed as 40.5%.

Take KWEYVVLLFLLLADARVC [Peptide 7028]: the “Fold Inhibition” value worked out at 2.1 fold and the “% of Mock” value worked out at 47.6%.

GAVYAFYGMWPLLLLLLA [Peptide 7038]: the “Fold Inhibition” value is 5.3 fold, the “% of Mock” value stood at 19.0% and the “Fold inhibition of HCV infection” value is listed as “five-fold to ten-fold”.

Consider DQLEQALNCEIYGACYSI [Peptide 7334], for which the “Fold Inhibition” value was 3.5 fold and the “% of Mock” value is 28.6%.

Turning to GWAGWLLSPRGSRPSWGP [Peptide 6939], the “Fold Inhibition” value stood at 2.2 fold and the “% of Mock” value is 45.2%.

For the sequence QIVGGVYLLPRRGPRLGV [Peptide 6930], the “Fold Inhibition” value was 2.2 fold and the “% of Mock” value was 45.2%.

Take EVFWAKHMWNFISGIQYL [Peptide 7177]: the “Fold Inhibition” value is reported as 4.2 fold and the “% of Mock” value is listed as 23.8%.

As for NCNESLNTGWLAGLFYQH [Peptide 6987], the “Fold Inhibition” value is reported as 2.8 fold and the “% of Mock” value is recorded as 35.7%.

Consider LEFWEGVFTGLTHIDAHF [Peptide 7148], for which the “Fold Inhibition” value is recorded as 3.0 fold and the “% of Mock” value amounted to 33.3%.

Consider YVSGMTTDNLKCPCQIPS [Peptide 7226], for which the “Fold Inhibition” value is 2.6 fold and the “% of Mock” value is given as 38.1%.

As for SSGADTEDVVCCSMS [Peptide 7740], the “Fold Inhibition” value was determined as 2.3 fold and the “% of Mock” value is 42.9%.

Consider LAALAAYCLSTGCVV [Peptide 7730], for which the “Fold Inhibition” value is reported as 4.7 fold and the “% of Mock” value stood at 21.4%.

With “TSTWVLVGGVLAAL (VTSTWVLVGGVLAAL) [Peptide 7729]”, the “Fold Inhibition” value is reported as 8.4 fold, the “% of Mock” value is given as 11.9% and the “Fold inhibition of HCV infection” value is recorded as “five-fold to ten-fold”.

For the sequence “SIWRDWVDLICEFLSDWK (OTHER INFORMATION: A synthetic peptide)”, the 1/3 diluted was determined as 31 ± 2, the 1/9 diluted stood at 16 ± 4 and the No dilution came to 0 ± 0.

Take QPGYPWPLYGNEGCGWAG [Peptide 6937]: the “Fold Inhibition” value came out at 2.0 fold and the “% of Mock” value is listed as 50.0%.

In the case of GPISYANGSGLDERPYCW [Peptide 6993], the “Fold Inhibition” value was 4.2 fold and the “% of Mock” value was determined as 23.8%.

The sequence “KFDSLVECIWDWIDRLWS (OTHER INFORMATION: A synthetic peptide)” yielded a 1/3 diluted of 50 ± 7, a 1/9 diluted of 31 ± 3 and a No dilution of 1 ± 1.

Consider AYMNTPGLPVCQDHLEFW [Peptide 7146], for which the “Fold Inhibition” value is 2.5 fold and the “% of Mock” value is reported as 40.5%.

With APTLWARMILMTHFFSVL [Peptide 7331], the “Fold Inhibition” value is on record as 2.2 fold and the “% of Mock” value was 45.2%.

In the case of WMNSTGFTKVCGAPPCVI [Peptide 7005], the “Fold Inhibition” value turned out to be 6.0 fold, the “% of Mock” value turned out to be 16.7% and the “Fold inhibition of HCV infection” value was “five-fold to ten-fold”.

On to HPITKYIMTCMSADLEVV [Peptide 7160], for which the “Fold Inhibition” value was determined as 2.6 fold and the “% of Mock” value is 38.1%.
